# Data as given in the METLIN SMRT retention time set (Domingo-Almenara et al. 2019).
# Assay: gradient 5% acetonitrile 3 min, to 50% in 2 min, to 85% in 15 min, held 3 min, 100 µL/min
# Details: column: Zorbax Extend-C18 2.1 x 50 mm; eluents: water / acetonitrile, 0.1% formic acid
# In short: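 Mixtures of ~100 pure standards were chromatographed on a Zorbax Extend-C18 column (2.1 × 50 mm, 1.8 μm) at 100 μL/min using water and acetonitrile, each with 0.1% formic acid. Detection used a quadrupole time-of-flight mass spectrometer in positive and negative ionization mode, and data collection spanned 3 months. Retention time was obtained from adduct peaks picked computationally and each checked manually.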
row,SMILES,RP-LC retention time [s]
1,CCc1nc2c(=O)n(CC(=O)N3CCN(c4ccc(Cl)cc4)CC3)nc(C)c2s1,854
2,CCc1nc2cc(-c3noc(-c4ccc(C#N)cc4)n3)ccc2o1,1050
3,CCCCn1c(=O)c2ccccc2n(Cc2nc(-c3ccc(OC(C)C)cc3)no2)c1=O,1290
4,Cc1ccc2nc(CN3CCN(C(=O)Nc4ccc5c(c4)OCO5)CC3)oc2c1,684
5,Cc1nnc(-c2ccc3ccn(CC(=O)NCc4ccccc4)c3c2)o1,1010
6,CC1=C/C(=C2/N=C(N(C)C)SS2)C(C)=N1,611
7,O=C(c1cc2occc2c(Nc2ccc(Cl)cc2)n1)N1CCN(c2ccccn2)CC1,713
8,Cc1noc(-c2ccnc(-n3cnc(C(=O)NC(C)c4ccc(F)cc4)c3)c2)n1 (centres undefined),885
9,CCN(CC)c1nc2cc(C(=O)OC)ccc2c(=O)n1CCc1ccccc1,1250
10,CCc1nncn1C1CCN(C(=O)c2cc(-c3cccs3)[nH]n2)C1 (centres undefined),595
11,Cc1cccc(NC(=O)N2CCC3(CC2)NC(=O)c2ccc(F)cc2N3C)c1,723
12,Cc1nc(-c2ccc(N3CCN(C(=O)c4nccc5ccccc45)CC3)nc2)sc1C,867
13,COc1ccc(N2CCN(c3ncc(C(=O)O)c(C)n3)CC2)cc1,713
14,Cn1cc2c3c(cccc31)CN(C(=O)c1ccc(Cl)cc1)CC2,988
15,Cc1ccc(NC(=O)Cn2c(N)nc(C)c(C)c2=O)c(C)c1,608
16,Cc1ccc(C)c(NC(=O)N2CCC(c3cc(N)on3)CC2)c1,698
17,Cc1cccc(-c2nc(C3CCN(S(=O)(=O)c4ccccc4F)CC3)no2)c1,1160
18,CCc1ccc(NC(=O)c2cc3sc(Cl)cc3n2C)cc1,1210
19,CCN1C(=O)c2cccnc2Sc2cc(CNC(=O)c3cccn3C)ccc21,747
20,CCCCN1C(=O)NC(c2ccccc2)C(c2nc(-c3ccccc3)no2)=C1C (centres undefined),1130
21,COc1ccc(-c2noc(-c3cc(N4CCN(C)CC4)nc4ccccc34)n2)cc1,794
22,Cc1c(C(=O)NC(C)C)cnn1-c1ccc(-c2nc(C(C)(C)C)no2)cn1,1020
23,Cc1cccc(-c2nnc3ccc(Cl)nn23)c1,823

row,SMILES,RP-LC retention time [s]
1,Cc1ccc(Cn2c(=O)c(N3CCN(C(=O)Nc4ccc5c(c4)OCO5)CC3)nc3cccnc32)cc1,1070
2,COc1ccc(CNC(=O)N2CC(Oc3ccc(-c4nc(C)no4)cc3)C2)cc1,825
3,O=C1COc2cc(S(=O)(=O)N3CCC(C(=O)NCC4CCCO4)CC3)c(Cl)cc2N1 (centres undefined),653
4,CC(C)(C)NC(=O)CCc1ccc2nc(-c3ccccc3)[nH]c2c1,632
5,O=C(COc1ccccc1)N1CCN(c2cc(-c3ccccc3)[nH]n2)CC1,776
6,CCOC(=O)c1ccc(NC(=O)Cn2nc3n(c2=O)CCCCC3)cc1,685
7,CCOC(=O)c1ccc(NC(=O)CC2COc3ccccc3NC2=O)cc1 (centres undefined),596
8,Cc1ccc(NC(=O)N2CCc3nc[nH]c3C2)cc1C,606
9,COc1cccc(-n2c(=O)c(C(=O)Nc3cccc(Cl)c3)c(O)c3cccnc32)c1,1330
10,Cc1ccc(NC(=O)Cc2nnc(-c3cnccn3)o2)cc1F,714
11,O=C(CSc1ncn[nH]1)Nc1ccc(Cl)cc1,642
12,CCN(c1ccccc1)S(=O)(=O)c1cc(-c2[nH]ncc2C(=O)N2CCCC2)oc1C,781
13,CCc1cc(=O)n(CC(=O)Nc2ccc(C)c(Cl)c2)c(N2CCOCC2)n1,871
14,Cc1ccc(S(=O)(=O)N2CCC(CCNC(=O)NC3CCCC3)CC2)cc1,894
15,Cc1ccc(-c2cc3c(=O)n(CC(=O)N4CCCc5ccccc54)ccn3n2)cc1,643
16,N#Cc1cnc2ccc(F)cc2c1N1CCC(C(=O)N2CCSCC2)CC1,766
17,O=C(NCc1cccc(Cl)c1)c1c(O)c2cccnc2n(-c2cccc(F)c2)c1=O,1240
18,CS(=O)(=O)N1CCC(OC2CCN(C(=O)Nc3cccc(Cl)c3F)CC2)CC1,787
19,CN1C(=O)c2cccn2CC1CNC(=O)NCc1ccc(F)cc1 (centres undefined),658
20,CCc1cccc(C)c1Nc1c(-c2ccc(C(=O)OC)cc2)nc2cnccn12,982
21,CCn1cc(-c2nc(-c3ccccn3)no2)c(=O)c2cc(F)c(N3CCOCC3)cc21,744
22,COc1ccc(N2CC(c3nc(-c4ccc5c(c4)OCO5)no3)CC2=O)cc1OC (centres undefined),824
23,CC(C)(C)OC(=O)N1CCN(c2ncc(C(=O)Nc3ccccc3)c(N)n2)CC1,760

row,SMILES,RP-LC retention time [s]
1,Cc1ccc(Cn2cc(-c3noc(-c4ccc5c(c4)OCO5)n3)nn2)cc1,1020
2,CCn1cc(S(=O)(=O)N2CC(Cn3c(C)cnc3-c3ccncc3)C2)cn1,574
3,O=C([C@@H]1C[C@H](Oc2cccnc2)CN1C(=O)CC1CCCC1)N1CCCC1,600
4,Fc1cccc(-c2noc(Cc3nnc(-c4ccccc4)o3)n2)c1,974
5,CCn1cc(C)c(C(=O)O)c1CC(=O)N1CCOCC1,619
6,CN(C)S(=O)(=O)c1ccc2c(c1)N(CC(=O)Nc1cccc(F)c1)C(=O)C1CCCCN21 (centres undefined),928
7,CC(C)Cn1nc(CNC(=O)CSc2ccncc2)c2ccccc21,632
8,O=C(CSc1nnc2c(=O)n(-c3ccc(F)cc3)ccn12)c1ccc(F)cc1,802
9,COC(=O)C1=CN(C2CC2)c2cc(N3CCCCCC3)c(F)cc2S1(=O)=O,980
10,CCOc1ccc(-c2cc3c(=O)n(Cc4nc(-c5ccccc5OC)no4)ncn3n2)cc1,1050
11,O=C(Cn1nc(C2CC2)cc1C(=O)N1CCCC1)NCc1ccc(F)cc1,738
12,Cc1cc(NC(=O)C(C)C)nn1Cc1ccccc1,778
13,Cn1nc(-c2ccncc2)nc1C1CN(S(=O)(=O)c2cc(F)ccc2F)C1,638
14,CCOCCCNC(=O)N1CCCC(C)(C(=O)NCc2ccc(C)cc2)C1 (centres undefined),740
15,COc1cccc(CNC(=O)C2CCCN2S(=O)(=O)c2cc3c(cc2Cl)NC(=O)CO3)c1 (centres undefined),880
16,CC(=O)Nc1ccc(S(=O)(=O)N2CC=C(c3cn(C)c4ncccc34)CC2)cc1,764
17,O=C(CC1=CCCCC1)N1CC(F)(F)C[C@H]1c1nc(C2CC2)no1,1000
18,COc1ccc(-c2nc(Cn3cnc4nc5c(cc4c3=O)CC(C)CC5)c(C)o2)cc1OC (centres undefined),870
19,O=C(NCc1ccc(-c2noc(-c3cc(F)cc(F)c3)n2)s1)C1CC1,952
20,CCOC(=O)Cn1c(=O)c2c(nc3n2CC(C)CN3c2ccc(OCC)cc2)n(C)c1=O (centres undefined),958
21,CCOc1ccc(-c2csc(NC(=O)CCc3ccccc3)n2)cc1,1120
22,Cc1c(C(=O)NCCN2CCCCCC2)sc2ncnc(N3CCN(C)CC3)c12,551
23,COCC(=O)Nc1ccc(N2CCN(C3CCCCC3)CC2)cc1C(=O)O,603

row,SMILES,RP-LC retention time [s]
1,Cc1nc2cccnc2n1C1CCN(C(=O)Nc2cccc(F)c2)CC1,947
2,O=C(c1ccc2c(c1)OCO2)N1CCN(c2cc(-c3ccccc3)[nH]n2)CC1,733
3,C=Cc1ccc(Cn2c(C)c(CNCCc3ccco3)c(C(=O)O)c2C)cc1,755
4,Cc1nc(-c2cccnc2)n2c(=O)n(CCc3ccccc3)nc2c1C,786
5,Cc1nn(-c2ccccc2)c(C)c1/C=N/N1CCN(Cc2ccccc2)CC1,687
6,Cc1cc(C)c(-c2noc(C)n2)c(NC(=O)c2cc(F)cc(F)c2)n1,787
7,Cc1ccc(-c2[nH]ncc2CN2CCn3c(nn(C)c3=O)C2)cc1C,638
8,CCN1CCCC1CNC(=O)C1CCN(S(=O)(=O)c2ccc3c(c2)sc(=O)n3C)CC1 (centres undefined),794
9,Cc1nnc(-c2coc(S(=O)(=O)N3CCN(c4ccccn4)CC3)c2)o1,606
10,Cc1ccc(N2CCC(NC(=O)Nc3ccc(C)cc3C)C2=O)cc1 (centres undefined),875
11,CCC(C)(C)C(=O)N1CCCC(c2nc(CCNC(=O)C(C)C)cs2)C1 (centres undefined),783
12,CC1=C(c2ccc(C)c(C)c2)S(=O)(=O)N=C1N1CCC(C(=O)NCCN2CCCC2)CC1,661
13,CCc1ccc(N2C=C(C(=O)N3CCOCC3)S(=O)(=O)c3ccc(Cl)cc32)cc1,936
14,Cc1noc(C)c1S(=O)(=O)Nc1cc2c3c(c1)CC(=O)N3CCC2,672
15,CCCNC(=O)CCc1nc2ccccc2n(CC(=O)NCc2ccc(C)cc2)c1=O,786
16,COc1cccc(-c2nc(Cn3cnc4nc5c(cc4c3=O)CC(C)CC5)c(C)o2)c1OC (centres undefined),941
17,COc1cccc(-c2nc(CN3CCCC3=O)no2)c1,697
18,COc1cccc(CNC(=O)C2CCCN(c3nnc(C)c4c(C)n(-c5ccccc5)nc34)C2)c1 (centres undefined),715
19,COc1ccc(OC)c(CN2CCc3nc(N4CCOCC4)ncc3C2)c1,607
20,CC1CCCN(CCCNC(=O)CCC(=O)N2CCc3c(c(C(=O)N4CCCCC4)nn3C)C2)C1 (centres undefined),594
